Test results as given in US20240050428A1 (Cullgen (Shanghai), Inc., priority 2020, published 2024).
Where two headings read alike, the source gives them in different places.

Tests used:
[1] = test system: MOLM-13 cells; experiment: Cell viability assay (CellTiter-Glo) in MOLM-13 cells, alone or with gilteritinib; type: cell-based; conditions: Homo sapiens, MOLM-13, 72 h, MOLM-13 cells, three days, CellTiter-Glo
[2] = test system: MV4;11 cells; experiment: Cell viability assay (CellTiter-Glo) in MV4;11 cells, alone or with gilteritinib; type: cell-based; conditions: Homo sapiens, MV4-11, 72 h, MV4;11 cells, three days, CellTiter-Glo, read-out: MV4
[3] = compound alone (without gilteritinib), read-out: MOLM-13 IC50
[4] = with gilteritinib 20 nM, read-out: MOLM-13 IC50 gilteritinib
[5] = compound alone (without gilteritinib), 11 IC50
[6] = with gilteritinib 10 nM, 11 IC50 gilteritinib

Question: What does the source list for O=C(CC12CC(C(=O)N3CCC(n4cc(-c5cnc6ccccc6n5)cn4)CC3)(C1)C2)NCc1ccc2c(c1)CN(C1CCC(=O)NC1=O)C2=O (centres unmarked) [GS-121, N-((2-(2,6-dioxopiperidin-3-yl)-1-oxoisoindolin-5-yl)methyl)-2-(3-(4-(4-(quinoxalin-2-yl)-1H-pyrazol-1-yl)piperidine-1-carbonyl)bicyclo[1.1.1]pentan-1-yl)acetamide]?
Answer: IC50 [1, 3]: > 1000 nM; IC50 [1, 4]: 100 to 1000 nM; IC50 [2, 5]: 100 to 1000 nM; IC50 [2, 6]: 10 to 100 nM

Question: Which results are given for O=C(Cc1ccc(N2CCC(n3cc(-c4cnc5ccccc5n4)cn3)CC2)cc1)NCc1ccc2c(c1)CN(C1CCC(=O)NC1=O)C2=O (centres unmarked) [GS-122, N-((2-(2,6-dioxopiperidin-3-yl)-1-oxoisoindolin-5-yl)methyl)-2-(4-(4-(4-(quinoxalin-2-yl)-1H-pyrazol-1-yl)piperidin-1-yl)phenyl)acetamide]?
Answer: IC50 [1, 3]: < 10 nM; IC50 [1, 4]: < 10 nM; IC50 [2, 5]: < 10 nM; IC50 [2, 6]: < 10 nM

Question: O=C1CCC(N2C(=O)c3ccc(NCCCCCC4(N5CCC(n6cc(-c7cnc8ccccc8n7)cn6)CC5)CC4)cc3C2=O)C(=O)N1 (centres unmarked) [GS-123, 2-(2,6-Dioxopiperidin-3-yl)-5-((5-(1-(4-(4-(quinoxalin-2-yl)-1H-pyrazol-1-yl)piperidin-1-yl)cyclopropyl)pentyl)amino)isoindoline-1,3-dione] was tested. Which IC50 [1, 3] did it give?
Answer: > 1000 nM

Question: What about the IC50 [1, 4] of the same compound?
Answer: < 10 nM

Question: What about the IC50 [2, 5] of the same compound?
Answer: 100 to 1000 nM

Question: What about the IC50 [2, 6] of the same compound?
Answer: 100 to 1000 nM

Question: With O=C1CCC(N2C(=O)c3ccc(NCCCCC4(N5CCC(n6cc(-c7cnc8ccccc8n7)cn6)CC5)CC4)cc3C2=O)C(=O)N1 (centres unmarked) [GS-124, 2-(2,6-Dioxopiperidin-3-yl)-5-((4-(1-(4-(4-(quinoxalin-2-yl)-1H-pyrazol-1-yl)piperidin-1-yl)cyclopropyl)butyl)amino)isoindoline-1,3-dione] as the compound, how does the IC50 [1, 3] read?
Answer: > 1000 nM

Question: And the IC50 [1, 4]?
Answer: 10 to 100 nM

Question: What about the IC50 [2, 5] of the same compound?
Answer: > 1000 nM

Question: And the IC50 [2, 6]?
Answer: > 1000 nM

Question: What does the source list for O=C1CCC(N2Cc3c(NC4CCCC(Nc5nccc(N6CCC(n7cc(-c8cnc9ccccc9n8)cn7)CC6)n5)C4)cccc3C2=O)C(=O)N1 (centres unmarked) [GS-125, 3-(1-Oxo-4-((3-((4-(4-(4-(quinoxalin-2-yl)-1H-pyrazol-1-yl)piperidin-1-yl)pyrimidin-2-yl)amino)cyclohexyl)amino)isoindolin-2-yl)piperidine-2,6-dione]?
Answer: IC50 [1, 3]: > 1000 nM; IC50 [1, 4]: > 1000 nM; IC50 [2, 5]: 100 to 1000 nM; IC50 [2, 6]: 100 to 1000 nM

Question: O=C1CCC(N2Cc3cc(NCCCCCC4(N5CCC(n6cc(-c7cnc8ccccc8n7)cn6)CC5)CC4)ccc3C2=O)C(=O)N1 (centres unmarked) [GS-126, 3-(1-Oxo-5-((5-(1-(4-(4-(quinoxalin-2-yl)-1H-pyrazol-1-yl)piperidin-1-yl)cyclopropyl)pentyl)amino)isoindolin-2-yl)piperidine-2,6-dione] was tested. Which IC50 [1, 3] did it give?
Answer: > 1000 nM

Question: And the IC50 [1, 4]?
Answer: > 1000 nM

Question: What about the IC50 [2, 5] of the same compound?
Answer: 100 to 1000 nM

Question: And the IC50 [2, 6]?
Answer: > 1000 nM

Question: What does the source list for CC(CCCCCCc1ccc2c(c1)C(=O)N(C1CCC(=O)NC1=O)C2)n1cc(-c2cnc3ccccc3n2)cn1 (centres unmarked) [GS-127, 3-(1-Oxo-6-(7-(4-(quinoxalin-2-yl)-1H-pyrazol-1-yl)octyl)isoindolin-2-yl)piperidine-2,6-dione]?
Answer: IC50 [1, 3]: > 1000 nM; IC50 [1, 4]: 100 to 1000 nM; IC50 [2, 5]: > 1000 nM; IC50 [2, 6]: 100 to 1000 nM

Question: Which IC50 [1, 3] does the source give for O=C1CCC(N2Cc3ccc(NCCCCCCn4cc(-c5cnc6ccccc6n5)cn4)cc3C2=O)C(=O)N1 (centres unmarked) [GS-128, 3-(1-Oxo-6-((6-(4-(quinoxalin-2-yl)-1H-pyrazol-1-yl)hexyl)amino)isoindolin-2-) piperidine-2,6-dione] here?
Answer: > 1000 nM

Question: And the IC50 [1, 4]?
Answer: > 1000 nM

Question: And the IC50 [2, 5]?
Answer: > 1000 nM

Question: What about the IC50 [2, 6] of the same compound?
Answer: > 1000 nM

Question: How did the IC50 [1, 3] turn out when O=C1CCC(N2C(=O)c3ccc(NCCCCS(=O)(=O)N4CCC(n5cc(-c6cnc7ccccc7n6)cn5)CC4)cc3C2=O)C(=O)N1 (centres unmarked) [GS-129, 2-(2,6-Dioxopiperidin-3-yl)-5-((4-((4-(4-(quinoxalin-2-yl)-1H-pyrazol-1-yl)piperidin-1-yl)sulfonyl)butyl)amino)isoindoline-1,3-dione] was run?
Answer: > 1000 nM

Question: And the IC50 [1, 4]?
Answer: 100 to 1000 nM

Question: What about the IC50 [2, 5] of the same compound?
Answer: > 1000 nM

Question: What about the IC50 [2, 6] of the same compound?
Answer: 100 to 1000 nM

Question: Which results are given for O=C(CC12CC(N3CCC(n4cc(-c5cnc6ccccc6n5)cn4)CC3)(C1)C2)NCc1ccc2c(c1)CN(C1CCC(=O)NC1=O)C2=O (centres unmarked) [GS-130, N-((2-(2,6-dioxopiperidin-3-yl)-1-oxoisoindolin-5-yl)methyl)-2-(3-(4-(4-(quinoxalin-2-yl)-1H-pyrazol-1-yl)piperidin-1-yl)bicyclo[1.1.1]pentan-1-yl)acetamide]?
Answer: IC50 [1, 3]: > 1000 nM; IC50 [1, 4]: > 1000 nM; IC50 [2, 5]: > 1000 nM; IC50 [2, 6]: > 1000 nM

Question: Which results are given for O=C1CCC(N2Cc3ccc(NCCCC4CC(n5cc(-c6cnc7ccccc7n6)cn5)C4)cc3C2=O)C(=O)N1 (centres unmarked) [GS-131, 3-(1-Oxo-6-((3-(3-(4-(quinoxalin-2-yl)-1H-pyrazol-1-yl)cyclobutyl)propyl)amino)isoindolin-2-yl)piperidine-2,6-dione]?
Answer: IC50 [1, 3]: > 1000 nM; IC50 [1, 4]: > 1000 nM; IC50 [2, 5]: > 1000 nM; IC50 [2, 6]: > 1000 nM

Question: For O=C1CCC(N2C(=O)c3ccc(NCCCNC(=O)N4CCC(n5cc(-c6cnc7ccccc7n6)cn5)CC4)cc3C2=O)C(=O)N1 (centres unmarked) [GS-132, N-(3-((2-(2,6-dioxopiperidin-3-yl)-1,3-dioxoisoindolin-5-yl)amino)propyl)-4-(4-(quinoxalin-2-yl)-1H-pyrazol-1-yl)piperidine-1-carboxamide], which IC50 [1, 3] is on record?
Answer: < 10 nM

Question: And the IC50 [1, 4]?
Answer: < 10 nM

Question: What about the IC50 [2, 5] of the same compound?
Answer: < 10 nM

Question: What about the IC50 [2, 6] of the same compound?
Answer: < 10 nM

Question: O=C1CCC(N2Cc3c(NC4CCCN(Cc5cccc(N6CCC(n7cc(-c8cnc9ccccc9n8)cn7)CC6)c5)C4)cccc3C2=O)C(=O)N1 (centres unmarked) [GS-133, 3-(1-Oxo-4-((1-(3-(4-(4-(quinoxalin-2-yl)-1H-pyrazol-1-yl)piperidin-1-yl)benzyl)piperidin-3-yl)amino)isoindolin-2-yl)piperidine-2,6-dione] was tested. Which IC50 [1, 3] did it give?
Answer: > 1000 nM

Question: And the IC50 [1, 4]?
Answer: > 1000 nM

Question: What about the IC50 [2, 5] of the same compound?
Answer: > 1000 nM

Question: And the IC50 [2, 6]?
Answer: > 1000 nM

Question: Which results are given for Cc1nc2ccccc2nc1-c1cnn(CCCCCCCc2ccc3c(c2)C(=O)N(C2CCC(=O)NC2=O)C3)c1 (centres unmarked) [GS-134, 3-(6-(7-(4-(3-Methylquinoxalin-2-yl)-1H-pyrazol-1-yl)heptyl)-1-oxoisoindolin-2-yl)piperidine-2,6-dione]?
Answer: IC50 [1, 3]: 10 to 100 nM; IC50 [1, 4]: < 10 nM; IC50 [2, 5]: 10 to 100 nM; IC50 [2, 6]: 10 to 100 nM

Question: For O=C1CCC(N2Cc3c(NC4CCCC(Nc5cccc(N6CCC(c7cccc(Cl)c7)CC6)c5)C4)cccc3C2=O)C(=O)N1 (centres unmarked) [GS-135, 3-(4-((3-((3-(4-(3-Chlorophenyl)piperidin-1-yl)phenyl)amino)cyclohexyl)amino)-1-oxoisoindolin-2-yl)piperidine-2,6-dione], which IC50 [1, 3] is on record?
Answer: > 1000 nM

Question: And the IC50 [1, 4]?
Answer: > 1000 nM

Question: And the IC50 [2, 5]?
Answer: > 1000 nM

Question: What about the IC50 [2, 6] of the same compound?
Answer: 100 to 1000 nM

Question: For O=C1CCC(N2C(=O)c3ccc(NCCCCC(=O)N4C5CCC4CC(n4cc(-c6cnc7ccccc7n6)cn4)C5)cc3C2=O)C(=O)N1 (centres unmarked) [GS-136, 2-(2,6-Dioxopiperidin-3-yl)-5-((5-oxo-5-(3-(4-(quinoxalin-2-yl)-1H-pyrazol-1-yl)-8-azabicyclo[3.2.1]octan-8-yl)pentyl)amino)isoindoline-1,3-dione], which IC50 [1, 3] is on record?
Answer: > 1000 nM

Question: And the IC50 [1, 4]?
Answer: > 1000 nM

Question: And the IC50 [2, 5]?
Answer: > 1000 nM

Question: And the IC50 [2, 6]?
Answer: > 1000 nM

Question: Which results are given for O=C1CCC(N2Cc3cc(NCCCCC4(N5CCC(n6cc(-c7cnc8ccccc8n7)cn6)CC5)CC4)ccc3C2=O)C(=O)N1 (centres unmarked) [GS-137, 3-(1-Oxo-5-((4-(1-(4-(4-(quinoxalin-2-yl)-1H-pyrazol-1-yl)piperidin-1-yl)cyclopropyl)butyl)amino)isoindolin-2-yl)piperidine-2,6-dione]?
Answer: IC50 [1, 3]: > 1000 nM; IC50 [1, 4]: > 1000 nM; IC50 [2, 5]: > 1000 nM; IC50 [2, 6]: > 1000 nM
